Where a name gives a salt, the structure may show the parent alone.
Key:
[1] = system: Chinese hamster ovary cells; assay: standard mitotic inhibition test employing Chinese hamster ovary cells; assay type: cell-based
Excerpt: The compounds of this invention are antimitotic compounds which adversely affects the growth of malignant cells. This activity is manifested in a standard mitotic inhibition test employing Chinese hamster ovary cells.

[2] = system: P1534(J); assay: transplanted tumors in mice: P1534(J) leukemia; assay type: in vivo; conditions: intraperitoneal
Procedure: (§1) The bases of this invention and their salts preparable by the processes disclosed herein are active in vivo against transplanted tumors in mice.
The following table--Table 1--gives the results of experiments in which mice bearing the susceptible transplanted tumor were treated with a compound of this invention. In the table, column 1 gives the name of the compound; column 2, the tumor used; column 3 the dosage; and column 4, the percent inhibition of tumor growth (I) or prolongation of life (PL). […]

[3] = system: 755 adenocarcinoma; assay: transplanted tumors in mice: 755 adenocarcinoma; assay type: in vivo; conditions: intraperitoneal
Procedure: as §1
(§2) The following table--Table 1--gives the results of experiments in which mice bearing the susceptible transplanted tumor were treated with a compound of this invention. In the table, column 1 gives the name of the compound; column 2, the tumor used; column 3 the dosage; and column 4, the percent inhibition of tumor growth (I) or prolongation of life (PL). The following dosage regimens were employed: every day for 7 or 10 days after tumor inoculation; or every fourth day (three doses) starting at the third day after tumor inoculation.

[4] = system: B16 melanoma; assay: transplanted tumors in mice: B16 melanoma; assay type: in vivo; conditions: intraperitoneal; for percent Prolongation of life (PL): * = 1 or more indefinite survivors
Procedure: as §1, §2

[5] = system: P388/V leukemia; assay: transplanted tumors in mice: P388/V leukemia; assay type: in vivo; conditions: dose and regimen not given, intraperitoneal
Procedure: as §1, §2

[6] = system: tumor; conditions: background, U.S. Pat. No. 4,166,810 and Conrad et al.; cited from earlier work

4'-Acetylamino VLB
mitotic index ([1]; 2.0×10^-2 mcg/ml): + (15-25% inhibition)

CCC1(NC(C)=O)C[C@@H]2CN(CCc3c([nH]c4ccccc34)[C@@](C(=O)OC)(c3cc4c(cc3OC)N(C)[C@H]3[C@@](O)(C(=O)OC)[C@H](OC(C)=O)[C@]5(CC)C=CCN6CC[C@]43[C@@H]65)C2)C1 (some centres unmarked) [4'-acetylamino VLB sulfate]
Percent Inhibition (I) of tumor growth ([2]; every third day, 5.0 mg/kg): 42%
Percent Inhibition (I) of tumor growth ([2]; every third day, 7.5 mg/kg): 71%
Percent Inhibition (I) of tumor growth ([3]; 10 days, 1 mg/kg): 18%
Percent Inhibition (I) of tumor growth ([3]; 10 days, .5 mg/kg): 30%
Percent Inhibition (I) of tumor growth ([3]; 10 days, .75 mg/kg): 29%
Percent Inhibition (I) of tumor growth ([3]; 11 days, 3 mg/kg): 57%
Percent Inhibition (I) or Prolongation (PL) column: toxicity ([3]; 11 days, 6 mg/kg): Toxic
Percent Inhibition (I) of tumor growth ([3]; 11 days, .5 mg/kg): 33%
indefinite survivors ([4]; 3 days, 1.5 mg/kg): * (1 or more indefinite survivors)
percent Prolongation of life (PL) ([4]; 3 days, 1.5 mg/kg): 120%
indefinite survivors ([4]; 3 days, 3 mg/kg): * (1 or more indefinite survivors)
percent Prolongation of life (PL) ([4]; 3 days, 3 mg/kg): 74-201%
indefinite survivors ([4]; .75 mg/kg): * (1 or more indefinite survivors)
percent Prolongation of life (PL) ([4]; .75 mg/kg): 119%
indefinite survivors [5]: * (1 or more indefinite survivors)
percent Prolongation of life (PL) ([5]; * = 1 or more indefinite survivors): 20%

CCC1(NC(C)=O)C[C@@H]2CN(CCc3c([nH]c4ccccc34)[C@@](C(=O)OC)(c3cc4c(cc3OC)N(C)[C@H]3[C@@](O)(C(=O)OC)[C@H](O)[C@]5(CC)C=CCN6CC[C@]43[C@@H]65)C2)C1 (some centres unmarked) [4'-acetylamino-4-desacetyl VLB]
inhibition at 2 µg/mL ([1]; Cricetulus griseus, CHO, read-out: mitotic index): 25 to 50%
Percent Inhibition (I) of tumor growth ([2]; 9.5-1.0 mg/kg): 2-11%
Percent Inhibition (I) of tumor growth ([4]; 10 1.0 (regimen and dose mg/kg)): 58%
Percent Inhibition (I) of tumor growth ([4]; .5 mg/kg): 23%
Percent Inhibition (I) of tumor growth ([4]; .75 mg/kg): 44%

CC[C@]1(O)C[C@@H]2CN(CCc3c([nH]c4ccccc34)[C@@](C(=O)OC)(c3cc4c(cc3OC)N(C)[C@H]3[C@@](O)(C(N)=O)[C@H](O)[C@]5(CC)C=CCN6CC[C@]43[C@@H]65)C2)C1 [vindesine, 4-desacetyl VLB C-3 carboxamide]
anti-tumor activity [6]: very active

— patent US4322351A (priority 1980, dated 1982)
